Assay results taken from PubChem BioAssay AID1626 (SRMLSC, 2009).

System: M. tuberculosis H37Rv growth inhibition
Experiment: M. tuberculosis H37Rv growth inhibitors, H37Rv strain (AID 1626)
Details: for IC90: measured here: IC90 against H37Rv; for CC50: measured here: Vero cell cytotoxicity

SMILES	IC50 [µM]	IC90 [µM]	CC50 [µM]
CCC(=O)OCCNc1cc(SCCC(=O)OC)c2nonc2c1[N+](=O)[O-]	12.2	19.5	
CCCC(=O)OCCNc1cc(Sc2nc3ccccc3[nH]2)c2nonc2c1[N+](=O)[O-]	68.1	> 100	23.5
CC(=O)n1cc(N(C(=O)CCl)c2ccc(C)cc2)c2ccccc21	4.64	17.1	0.471
CCOc1ccc(NC2c3ccccc3C(=O)N2Cc2ccco2)cc1 (centres undefined)	19.1	> 100	
Fc1cccc2sc(Nc3nnc(-c4ccco4)o3)nc12	< 0.195	3.19	36.4
CCOC(=O)c1cnc(Nc2nc3ccccc3o2)nc1C	20.4	> 100	22.5
c1ccc(-c2cc3c(NCC4COc5ccccc5O4)ncnc3s2)cc1 (centres undefined)		> 100	> 40
O=C(Oc1c(Cl)cc(Cl)c2cccnc12)c1ccco1	1.28	1.78	10
CCC(=O)c1coc2ccc(O)cc12	11.1	> 100	
CCc1ccc(-c2cc(C(F)(F)F)n3nc(C(=O)Nc4c(C)nn(Cc5ccc(F)cc5)c4C)cc3n2)s1	16.2	> 100	> 40
CCC1CCCCN1C(=O)COC(=O)c1cc2ccccc2cc1O (centres undefined)	1.25	4.34	
Cc1ccc(-c2nc3c(cnn3-c3ccccc3)c(=O)o2)cc1	6.21	13.4	
O=C(CSCc1ccc(Cl)cc1)Nc1ccc(-c2nnc(-c3ccccc3)o2)cc1			6.18
CCCc1cc(C(=O)Nc2nccs2)cs1	17.7	> 100	
O=C(CCCSc1ccccc1)Nc1nc(-c2ccccn2)cs1	0.239	5.04	> 40
COC(=O)c1ccc(Cn2cc(C(F)(F)F)cc([N+](=O)[O-])c2=O)cc1	29.9	> 100	
O=C1c2cccc3cc([N+](=O)[O-])cc(c23)C(=O)N1CCN1CCCC1	4.6	5.71	1.8
O=[N+]([O-])c1ncn(Cc2c(Cl)cccc2Cl)n1	36.6	> 100	
Cc1nc2ccccn2c1C(=O)NCc1ccc2c(c1)OCO2	1.62	7.83	
C=C1C2(C(=O)Nc3ccc(SC(F)F)cc3)CCC(C2)C1(C)C (centres undefined)		> 100	
N=C1SCC(=O)N1c1ncc(Cc2ccc(F)cc2)s1	< 0.195	> 100	> 40
O=C(c1ccc([N+](=O)[O-])s1)N1CCN(c2cccc(Cl)c2)CC1	9.2	12.8	31.6
CCn1cc(CNC(=O)c2cc([N+](=O)[O-])c(C)c([N+](=O)[O-])c2)cn1	0.547	0.874	
C=C1C(=O)O[C@@H]2C[C@@H](C)[C@@H]3C=CC(=O)[C@@]3(C)[C@@H](OC(=O)CC(=O)O[C@H]3[C@@H]4C(=C)C(=O)O[C@@H]4C[C@@H](C)[C@@H]4C=CC(=O)[C@]43C)[C@H]12	1.47	3.35	1.4
CN1c2ccc([N+](=O)[O-])cc2CC2(C(=O)NC(=O)N(c3ccc(Br)cc3)C2=O)C1c1ccccc1 (centres undefined)	0.964	> 100	> 40
COc1ccc2cc(C(=O)C3CCCN(Cc4cnc(C)s4)C3)ccc2c1 (centres undefined)	13.6	> 100	
Cc1cc(Cl)n2c(nc3cc(F)c(F)cc32)c1C#N	3.98	10.5	2.29
O=C1/C(=C/c2cccnc2)Oc2cc(OS(=O)(=O)c3ccc(F)cc3)ccc21	72.6	> 100	
c1ccc(-c2nnc(SCc3nnc(-c4cccs4)o3)o2)cc1	6.34	11.6	
